US4120955A, “Method for production of kanamycin C and its derivatives” (Zaidan Hojin Biseibutsu Kagaku Kenkyu Kai, priority 1976, dated 1978)
Values after ≈ are worked out from the molar mass of the structure shown. “Also recorded” adds a separate entry of the source. Where two headings read alike, the source gives them in different places.

Columns and labels:
[1] = tested on: aminoglycoside 6'-acetyltransferases; details: known kanamycins; cited from earlier work
[2] = tested on: resistant bacteria which produce 3'-phosphotransferases; details: known deoxykanamycin B derivatives; cited from earlier work
[3] = tested on: Escherichia coli K-12 ML 1410 R81; test: Minimum inhibitory concentration, serial dilution method; assay type: cell-based; details: 18 h, read-out: Minimum Inhibitory Concentration
Protocol: (§1) The minimum inhibitory concentrations (mcg/ml) of kanamycin C, 3'-deoxykanamycin C and 3',4'-dideoxykanamycin C against various microorganisms were determened according to serial dilution method using nutrient agar medium at 37° C., the estimation being effected after 18 hours incubation.

[4] = tested on: Escherichia coli JR 66/W677; test: as above; assay type: cell-based
Protocol: as §1

[5] = tested on: Escherichia coli LA 290 R56; test: as above; assay type: cell-based; details: LA290R56, 18 h, read-out: Minimum Inhibitory Concentration
Protocol: as §1

[6] = tested on: Escherichia coli K-12 ML 1630; test: as above; assay type: cell-based; details: K12ML1630, nutrient agar, 37° C., 18 hours, E. coli K-12 ML 1630
Protocol: as §1

[7] = tested on: Staphylococcus aureus FDA 209P; test: as above; assay type: cell-based; details: FDA209P, read-out: Minimum Inhibitory Concentration
Protocol: as §1

[8] = tested on: Escherichia coli LA 290 R55; test: as above; assay type: cell-based; details: LA290R55, 18 h, read-out: Minimum Inhibitory Concentration
Protocol: as §1

[9] = tested on: Pseudomonas aeruginosa No. 12; test: as above; assay type: cell-based; details: NO.12, 18 h, read-out: Minimum Inhibitory Concentration
Protocol: as §1

[10] = tested on: Mycobacterium smegmatis ATCC 607; test: as above; assay type: cell-based; details: Mycolicibacterium smegmatis, read-out: Minimum Inhibitory Concentration
Protocol: as §1

Escherichia coli W 677 = test: as above; assay type: cell-based
Protocol: as §1

[11] = tested on: Pseudomonas aeruginosa TI-13; test: as above; assay type: cell-based; details: TI13, 18 h, read-out: Minimum Inhibitory Concentration
Protocol: as §1

[12] = tested on: Escherichia coli K-12 ML 1629; test: as above; assay type: cell-based; details: K12ML1629, 18 h, read-out: Minimum Inhibitory Concentration
Protocol: as §1

Escherichia coli NIHJ = test: as above; assay type: cell-based; details: 18 h, read-out: Minimum Inhibitory Concentration
Protocol: as §1

[13] = tested on: Klebsiella pneumoniae PCI 602; test: as above; assay type: cell-based
Protocol: as §1

[14] = tested on: Klebsiella pneumoniae 22 No. 3038; test: as above; assay type: cell-based
Protocol: as §1

99 = test: as above; assay type: cell-based; details: 18 h, read-out: Minimum Inhibitory Concentration
Protocol: as §1

[15] = tested on: Pseudomonas aeruginosa A3; test: as above; assay type: cell-based; details: nutrient agar, 37° C., 18 hours, P. aeruginosa A3
Protocol: as §1

Escherichia coli K-12 = test: as above; assay type: cell-based
Protocol: as §1

[16] = tested on: Escherichia coli LA 290 R64; test: as above; assay type: cell-based; details: LA290R64, 18 h, read-out: Minimum Inhibitory Concentration
Protocol: as §1

[17] = tested on: Escherichia coli K-12 ML 1410; test: as above; assay type: cell-based; details: K12ML1410, nutrient agar, 37° C., 18 hours, E. coli K-12 ML 1410
Protocol: as §1

[18] = tested on: Pseudomonas aeruginosa GN 315; test: as above; assay type: cell-based; details: GN315, 18 h, read-out: Minimum Inhibitory Concentration
Protocol: as §1

[19] = tested on: resistant strains which produce 6'-acetyltransferases, for example Pseudomonas aeruginosa GN315; details: known deoxykanamycin B derivatives; cited from earlier work
in vivo = details: mouse, iv
[20] = tested on: aminoglycoside 6'-acetyltransferases; test: Inactivation by aminoglycoside 6'-acetyltransferases; assay type: biochemical
[21] = tested on: Pseudomonas aeruginosa H 11; test: Minimum inhibitory concentration, serial dilution method; assay type: cell-based; details: H11, 18 h, read-out: Minimum Inhibitory Concentration
Protocol: as §1

Escherichia coli K-12 R5 = test: as above; assay type: cell-based; details: K12R5, 18 h, read-out: Minimum Inhibitory Concentration
Protocol: as §1

Structure (SMILES) | inactivation (acetylation of the 6'-amino group) by 6'-acetyltransferases [1] | MIC [3] | MIC [5] | MIC [6] | MIC [8] | MIC [9] | MIC [11] | MIC [12] | MIC (Escherichia coli NIHJ) | MIC 99 | MIC [15] | MIC [16] | MIC [17] | MIC [18] | further results
NCC1OC(OC2C(N)CC(N)C(OC3OC(CO)C(O)C(N)C3O)C2O)C(N)CC1O (stereo not shown) [DKMB, 3'-deoxykanamycin B, reference compound] | can be inactivated; also recorded: acetylate the 6'-amino group | 1.56 µg/mL (≈ 3.34 µM) | 3.13 µg/mL (≈ 6.69 µM) | 1.56 µg/mL (≈ 3.34 µM) | 25 µg/mL (≈ 53.5 µM) | 0.78 µg/mL (≈ 1.67 µM) | 0.78 µg/mL (≈ 1.67 µM) | 1.56 µg/mL (≈ 3.34 µM) | 0.78 µg/mL (≈ 1.67 µM) | 1.56 µg/mL (≈ 3.34 µM) | 1.56 µg/mL (≈ 3.34 µM) | 3.13 µg/mL (≈ 6.69 µM) | 1.56 µg/mL (≈ 3.34 µM) | 100 µg/mL (≈ 214 µM) | activity against resistant bacteria producing aminoglycoside 3'-phosphotransferases [2]: active; MIC ([4]; JR66/W677, nutrient agar, 37° C., 18 hours, E. coli JR 66/W677, read-out: Minimum Inhibitory Concentration): 50 µg/mL (≈ 107 µM); MIC ([7]; nutrient agar, 37° C., 18 hours, S. aureus FDA 209P): < 0.2 µg/mL; MIC ([10]; ATCC607, nutrient agar, 37° C., 18 hours, M. smegmatis ATCC 607): 0.39 µg/mL (≈ 0.834 µM); MIC (Escherichia coli W 677; W677, nutrient agar, 37° C., 18 hours, E. coli W 677, read-out: Minimum Inhibitory Concentration): 0.39 µg/mL (≈ 0.834 µM); MIC ([13]; PCI602, nutrient agar, 37° C., 18 hours, K. pneumoniae PCI 602, read-out: Minimum Inhibitory Concentration): 0.39 µg/mL (≈ 0.834 µM); MIC ([14]; nutrient agar, 37° C., 18 hours, K. pneumoniae 22 No. 3038, read-out: Minimum Inhibitory Concentration): 50 µg/mL (≈ 107 µM); MIC (Escherichia coli K-12; K12, nutrient agar, 37° C., 18 hours, E. coli K-12, read-out: Minimum Inhibitory Concentration): 0.39 µg/mL (≈ 0.834 µM); growth inhibition of resistant bacteria producing 6'-acetyltransferases [19]: not able to inhibit the growth; LD50 (in vivo): 159 mg/kg
NC1CC(N)C(OC2OC(CO)C(O)C(N)C2O)C(O)C1OC1OC(CO)C(O)C(O)C1N (stereo not shown) [Kanamycin C, kanamycin C] | – | > 100 µg/mL | 25 µg/mL (≈ 51.6 µM) | > 100 µg/mL | > 100 µg/mL | 100 µg/mL (≈ 206 µM) | > 100 µg/mL | > 100 µg/mL | 3.13 µg/mL (≈ 6.46 µM) | > 100 µg/mL | > 100 µg/mL | 25 µg/mL (≈ 51.6 µM) | 6.25 µg/mL (≈ 12.9 µM) | > 100 µg/mL | inactivation by 6'-acetyltransferases [20]: inherently cannot be inactivated; MIC ([4]; JR66/W677, 18 h, read-out: Minimum Inhibitory Concentration): > 100 µg/mL; MIC ([7]; 18 h): 1.56 µg/mL (≈ 3.22 µM); MIC ([10]; ATCC607, 18 h): 12.5 µg/mL (≈ 25.8 µM); MIC [21]: > 100 µg/mL; MIC (Escherichia coli W 677; W677, 18 h, read-out: Minimum Inhibitory Concentration): 3.13 µg/mL (≈ 6.46 µM); MIC (Escherichia coli K-12 R5): 3.13 µg/mL (≈ 6.46 µM); MIC ([13]; PCI602, 18 h, read-out: Minimum Inhibitory Concentration): 3.13 µg/mL (≈ 6.46 µM); MIC ([14]; 22NO.3038, 18 h, read-out: Minimum Inhibitory Concentration): > 100 µg/mL; MIC (Escherichia coli K-12; K12, 18 h, read-out: Minimum Inhibitory Concentration): 3.13 µg/mL (≈ 6.46 µM)
NCC1OC(OC2C(N)CC(N)C(OC3OC(CO)C(O)C(N)C3O)C2O)C(O)C(O)C1O (stereo not shown) [kanamycin A] | acetylate the 6'-amino group | – | – | – | – | – | – | – | – | – | – | – | – | – | –
NC[C@H]1O[C@H](O[C@H]2[C@H](O)[C@@H](O[C@H]3O[C@H](CO)[C@@H](O)[C@H](N)[C@H]3O)[C@H](N)C[C@@H]2N)[C@H](N)[C@@H](O)[C@@H]1O [kanamycin B] | acetylate the 6'-amino group | – | – | – | – | – | – | – | – | – | – | – | – | – | –
